Laboratory results published in ChEMBL document CHEMBL5528025, “Design, synthesis and biological evaluation of carbamate derivatives incorporating multifunctional carrier scaffolds as pseudo-irreversible cholinesterase inhibitors for the treatment of Alzheimer's disease” (Eur J Med Chem, 2024).

How the values were obtained:
[1] = molecular target: Acetylcholinesterase (Homo sapiens, UniProt P22303)
Description: Inhibition of human erythrocyte AChE incubated for 10 mins

[2] = molecular target: Cholinesterase (Homo sapiens, UniProt P06276)
Description: Inhibition of human serum BuChE using butyrylthiocholine iodide as substrate incubated for 10 mins followed by substrate addition and measured after 10 mins by DTNB reagent based Ellman's method

[3] = Cytotoxicity against rat PC-12 cells assessed as cell viability at 10 uM incubated for 24 hrs by CCK-8 assay relative to control; type: toxicity, cell-based; conditions: read-out: Activity

Sequence of Acetylcholinesterase (P22303 whole entry): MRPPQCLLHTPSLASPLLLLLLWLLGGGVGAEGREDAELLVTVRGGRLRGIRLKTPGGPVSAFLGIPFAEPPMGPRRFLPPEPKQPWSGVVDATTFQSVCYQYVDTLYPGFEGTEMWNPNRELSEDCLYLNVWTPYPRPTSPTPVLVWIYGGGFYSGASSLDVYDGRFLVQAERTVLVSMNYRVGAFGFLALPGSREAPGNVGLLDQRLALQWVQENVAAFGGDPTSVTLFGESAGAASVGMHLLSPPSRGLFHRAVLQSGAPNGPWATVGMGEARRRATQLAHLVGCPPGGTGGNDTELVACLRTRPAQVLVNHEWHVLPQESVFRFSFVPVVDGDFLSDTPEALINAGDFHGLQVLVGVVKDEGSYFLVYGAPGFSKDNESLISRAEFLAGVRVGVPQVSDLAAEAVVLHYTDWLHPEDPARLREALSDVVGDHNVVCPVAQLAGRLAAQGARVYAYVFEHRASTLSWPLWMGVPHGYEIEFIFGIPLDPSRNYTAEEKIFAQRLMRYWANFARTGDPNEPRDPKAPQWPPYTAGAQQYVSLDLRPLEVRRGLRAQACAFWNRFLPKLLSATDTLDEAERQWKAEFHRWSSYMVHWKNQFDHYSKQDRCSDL
Sequence of Cholinesterase (P06276 whole entry): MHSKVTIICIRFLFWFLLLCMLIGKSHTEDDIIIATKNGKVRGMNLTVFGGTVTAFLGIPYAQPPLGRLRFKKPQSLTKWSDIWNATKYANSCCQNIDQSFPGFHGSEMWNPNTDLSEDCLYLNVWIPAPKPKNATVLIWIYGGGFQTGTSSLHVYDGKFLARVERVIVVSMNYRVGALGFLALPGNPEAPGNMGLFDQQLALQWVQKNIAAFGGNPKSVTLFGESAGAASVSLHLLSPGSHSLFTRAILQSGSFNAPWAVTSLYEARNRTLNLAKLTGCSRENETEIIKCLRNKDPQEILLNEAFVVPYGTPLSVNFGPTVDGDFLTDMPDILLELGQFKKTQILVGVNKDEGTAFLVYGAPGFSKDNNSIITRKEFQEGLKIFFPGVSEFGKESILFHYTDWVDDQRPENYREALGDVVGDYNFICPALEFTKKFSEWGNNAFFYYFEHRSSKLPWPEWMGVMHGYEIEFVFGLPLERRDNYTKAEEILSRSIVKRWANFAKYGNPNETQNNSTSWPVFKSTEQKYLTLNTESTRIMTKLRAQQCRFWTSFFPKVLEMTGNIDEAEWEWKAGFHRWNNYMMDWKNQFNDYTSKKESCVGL

Compound	IC50 [1] [µM]	IC50 [2] [µM]	viability at 24 h, 10 µM [3] [%]
O=C(NCCCCCNc1c2c(nc3cc(Br)ccc13)CCCC2)Oc1ccc(-c2cc3cccnc3[nH]2)cc1	0.0591	0.791	–
O=C(NCCCCCNc1c2c(nc3cc(F)ccc13)CCCC2)Oc1ccc(-c2cc3cccnc3[nH]2)cc1	0.152	0.334	–
C[C@@H](c1cccc(OC(=O)NCCCCCCNc2c3c(nc4cc(Cl)ccc24)CCCC3)c1)N(C)C	0.0256	0.0928	–
O=C(NCCCCCCNc1c2c(nc3cc(Br)ccc13)CCCC2)Oc1ccc2cc[nH]c2c1	0.113	0.0579	–
C[C@@H](c1cccc(OC(=O)NCCCCCCNc2c3c(nc4cc(F)ccc24)CCCC3)c1)N(C)C	0.0422	0.011	–
C[C@@H](c1cccc(OC(=O)NCCCCCCNc2c3c(nc4ccccc24)CCCC3)c1)N(C)C	0.119	0.0148	–
O=C(NCCCCCNc1c2c(nc3cc(Cl)ccc13)CCCC2)Oc1ccc(-c2cc3cccnc3[nH]2)cc1	0.0231	1.66	–
O=C(NCCCCCCNc1c2c(nc3ccccc13)CCCC2)Oc1ccc2cc[nH]c2c1	0.382	0.0765	–
C[C@@H](c1cccc(OC(=O)NCCCNc2c3c(nc4ccccc24)CCCC3)c1)N(C)C	0.385	0.0232	–
C[C@@H](c1cccc(OC(=O)NCCCCCNc2c3c(nc4cc(Cl)ccc24)CCCC3)c1)N(C)C	0.00828	0.0269	–
C[C@@H](c1cccc(OC(=O)NCCCCCNc2c3c(nc4cc(F)ccc24)CCCC3)c1)N(C)C	0.0378	0.137	–
O=C(NCCCNc1c2c(nc3ccccc13)CCCC2)Oc1ccc(-c2cc3cccnc3[nH]2)cc1	0.233	0.0161	> 90
O=C(NCCCNc1c2c(nc3ccccc13)CCCC2)Oc1ccc2cc[nH]c2c1	0.552	0.00723	–
C[C@@H](c1cccc(OC(=O)NCCCCCCNc2c3c(nc4cc(Br)ccc24)CCCC3)c1)N(C)C	0.056	0.00965	–
C[C@@H](c1cccc(OC(=O)NCCNc2c3c(nc4ccccc24)CCCC3)c1)N(C)C	0.252	> 10	–
O=C(NCCNc1c2c(nc3ccccc13)CCCC2)Oc1ccc(-c2cc3cccnc3[nH]2)cc1	> 10	0.0522	–
O=C(NCCCCCNc1c2c(nc3cc(F)ccc13)CCCC2)Oc1ccc2cc[nH]c2c1	0.273	0.04	–
